This is an account of results in patent US20240116921A1, “LACTAM (HETERO)[…] DERIVATIVES AS INHIBITORS OF ERBB2” (EnLiven Therapeutics, Inc., priority 2020, published 2024).

As usually defined, the IC50 is the concentration at which inhibition is half-maximal.

The structures appear in SMILES notation.

The target of one assay is Ba/F3 ERBB2-V777L (Homo sapiens, UniProt P04626, V777L, cells depend on it). In words: Cell viability assay, Ba/F3 ERBB2-V777L. Conditions: 72 hours, CellTiter Glo, read-out: IC50, cell viability, Ba/F3 ERBB2-V777L. The format is cell-based, mouse. The procedure:
(§1) Cells were treated with compounds, and cell viability was measured as a metric of kinase inhibition.
(§2) The Ba/F3 cell line is IL-3-dependent mouse cell line derived from the C3H mouse strain. Ba/F3 cell lines were engineered to express human ERBB2 or EGFR kinases, rendering the cells IL-3 independent. The lines were generated via retroviral transduction utilizing a Moloney murine leukemia virus (MMLV) promoter, and constructs are stably integrated into the cell genome. The sequences of the ERBB2 and EGFR genes used were NCBI Reference Sequences NM_004448.3 and NM_005228.3, respectively.
(§3) Similarly, Ba/F3 cell lines engineered to express EGFR, ERBB2, or ERBB2 mutants were grown, harvested, counted and seeded at 3000 cells per well in 96-well plates. A subset of wells contained media only (low control, “LC”).
(§4) Table B1 provides the growth media and number of cells seeded per well for the each cell line.
(§5) Plates were placed in a 37° C., 5% CO2 incubator for 72 hours. Plates were then removed from the incubator and equilibrated for 15 minutes at room temperature. 40 μl of CellTiter Glo reagent (Promega) was added to measure the relative level of metabolically active cells by quantifying intracellular ATP concentrations. Plates were incubated for 30 minutes at room temperature, and luminescence was measured. Percent viability was normalized to a vehicle control only using the following formula: % viability=100×(Lumsample−LumLC)/(LumHC−Lum^LC). Graphical curves were fitted using a nonlinear regression model with a sigmoidal dose response.
(In general: In ATP-based viability assays light output follows the ATP content of the culture.)

The target in a further assay is Ba/F3 ERBB2 wt (Homo sapiens, UniProt P04626). Nature of the assay: Cell viability assay, Ba/F3 ERBB2 wt. The format is cell-based, mouse. The settings on record: Ba/F3 ERBB2 wt cells, 72 hours, CellTiter Glo; read-out: IC50, cell viability, Ba/F3 ERBB2 wt. The protocol: as §1, §2, §3, §4, §5
Sequence of Ba/F3 ERBB2 wt (P04626 whole entry, stated change not applied): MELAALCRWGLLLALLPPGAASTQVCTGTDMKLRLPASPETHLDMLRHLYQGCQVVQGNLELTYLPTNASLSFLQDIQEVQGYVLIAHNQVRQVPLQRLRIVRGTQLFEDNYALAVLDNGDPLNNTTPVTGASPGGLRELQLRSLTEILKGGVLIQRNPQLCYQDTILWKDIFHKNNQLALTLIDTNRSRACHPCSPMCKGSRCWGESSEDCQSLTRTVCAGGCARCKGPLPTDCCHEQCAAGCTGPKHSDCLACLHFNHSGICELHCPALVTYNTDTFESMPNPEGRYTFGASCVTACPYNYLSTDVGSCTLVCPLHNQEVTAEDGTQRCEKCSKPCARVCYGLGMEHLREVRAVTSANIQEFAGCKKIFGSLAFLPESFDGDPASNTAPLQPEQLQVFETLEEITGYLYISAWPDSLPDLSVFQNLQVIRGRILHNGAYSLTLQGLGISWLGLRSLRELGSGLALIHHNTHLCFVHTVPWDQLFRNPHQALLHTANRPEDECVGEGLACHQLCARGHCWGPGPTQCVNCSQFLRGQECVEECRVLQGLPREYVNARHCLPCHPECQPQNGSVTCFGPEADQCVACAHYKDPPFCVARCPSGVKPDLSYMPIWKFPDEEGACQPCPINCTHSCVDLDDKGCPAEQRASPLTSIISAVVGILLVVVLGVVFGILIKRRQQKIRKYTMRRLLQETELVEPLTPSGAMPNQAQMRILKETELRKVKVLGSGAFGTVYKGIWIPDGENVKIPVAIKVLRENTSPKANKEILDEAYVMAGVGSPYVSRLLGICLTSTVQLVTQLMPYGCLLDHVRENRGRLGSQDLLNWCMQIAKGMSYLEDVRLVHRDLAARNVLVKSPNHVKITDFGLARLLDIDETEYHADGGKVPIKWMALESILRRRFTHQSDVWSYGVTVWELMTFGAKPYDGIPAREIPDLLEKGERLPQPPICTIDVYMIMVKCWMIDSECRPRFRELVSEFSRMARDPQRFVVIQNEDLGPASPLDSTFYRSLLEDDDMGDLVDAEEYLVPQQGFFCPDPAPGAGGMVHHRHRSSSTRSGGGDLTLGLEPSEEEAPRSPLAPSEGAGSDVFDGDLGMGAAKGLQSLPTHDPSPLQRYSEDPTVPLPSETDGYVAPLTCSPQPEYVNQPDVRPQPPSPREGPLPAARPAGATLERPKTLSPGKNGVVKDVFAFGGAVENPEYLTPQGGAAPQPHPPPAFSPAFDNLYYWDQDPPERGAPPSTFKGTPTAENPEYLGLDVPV
Assay [1] addresses Ba/F3 ERBB2-P780_Y781insGSP (Homo sapiens, UniProt P04626, DUP778-780, cells depend on it). Nature of the assay: Cell viability assay, Ba/F3 ERBB2-P780_Y781insGSP. The format is cell-based, mouse. Conditions: 72 hours, CellTiter Glo, read-out: IC50, cell viability, Ba/F3 ERBB2-P780_Y781insGSP. The protocol: as §1, §2, §3, §4
Plates were placed in a 37° C., 5% CO2 incubator for 72 hours. Plates were then removed from the incubator and equilibrated for 15 minutes at room temperature. 40 μl of CellTiter Glo reagent (Promega) was added to measure the relative level of metabolically active cells by quantifying intracellular ATP concentrations. Plates were incubated for 30 minutes at room temperature, and luminescence was measured. […] Graphical curves were fitted using a nonlinear regression model with a sigmoidal dose response.

Assay [2] addresses Ba/F3 ERBB2 A775_G776insYVMA (Homo sapiens, UniProt P04626, DUP772-775, cells depend on it). In words: Cell viability assay, Ba/F3 ERBB2 A775_G776insYVMA. Conditions: Ba/F3 ERBB2 A775_G776insYVMA cells, 72 hours, CellTiter Glo; Tables B2-B4; read-out: IC50, cell viability, Ba/F3 ERBB2 A775_G776insYVMA. Type of assay: cell-based, mouse. Summed up: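 Viability after 72 h compound treatment (37 °C, 5% CO2) was quantified by CellTiter-Glo luminescence of intracellular ATP, with sigmoidal dose-response fitting. Cells were retrovirally engineered Ba/F3 lines whose growth depends on the mutant human ERBB2 in place of IL-3, plated at 3000 per well.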

In another assay the target is Ba/F3 ERBB2-T798M (Homo sapiens, UniProt P04626, T798M, cells depend on it). Nature of the assay: Cell viability assay, Ba/F3 ERBB2-T798M. The format is cell-based, mouse. Conditions: 72 hours, CellTiter Glo, read-out: IC50, cell viability, Ba/F3 ERBB2-T798M. The procedure: as §1, §2, §3, §4, §5
Sequence of Ba/F3 ERBB2-T798M (P04626 whole entry T798M): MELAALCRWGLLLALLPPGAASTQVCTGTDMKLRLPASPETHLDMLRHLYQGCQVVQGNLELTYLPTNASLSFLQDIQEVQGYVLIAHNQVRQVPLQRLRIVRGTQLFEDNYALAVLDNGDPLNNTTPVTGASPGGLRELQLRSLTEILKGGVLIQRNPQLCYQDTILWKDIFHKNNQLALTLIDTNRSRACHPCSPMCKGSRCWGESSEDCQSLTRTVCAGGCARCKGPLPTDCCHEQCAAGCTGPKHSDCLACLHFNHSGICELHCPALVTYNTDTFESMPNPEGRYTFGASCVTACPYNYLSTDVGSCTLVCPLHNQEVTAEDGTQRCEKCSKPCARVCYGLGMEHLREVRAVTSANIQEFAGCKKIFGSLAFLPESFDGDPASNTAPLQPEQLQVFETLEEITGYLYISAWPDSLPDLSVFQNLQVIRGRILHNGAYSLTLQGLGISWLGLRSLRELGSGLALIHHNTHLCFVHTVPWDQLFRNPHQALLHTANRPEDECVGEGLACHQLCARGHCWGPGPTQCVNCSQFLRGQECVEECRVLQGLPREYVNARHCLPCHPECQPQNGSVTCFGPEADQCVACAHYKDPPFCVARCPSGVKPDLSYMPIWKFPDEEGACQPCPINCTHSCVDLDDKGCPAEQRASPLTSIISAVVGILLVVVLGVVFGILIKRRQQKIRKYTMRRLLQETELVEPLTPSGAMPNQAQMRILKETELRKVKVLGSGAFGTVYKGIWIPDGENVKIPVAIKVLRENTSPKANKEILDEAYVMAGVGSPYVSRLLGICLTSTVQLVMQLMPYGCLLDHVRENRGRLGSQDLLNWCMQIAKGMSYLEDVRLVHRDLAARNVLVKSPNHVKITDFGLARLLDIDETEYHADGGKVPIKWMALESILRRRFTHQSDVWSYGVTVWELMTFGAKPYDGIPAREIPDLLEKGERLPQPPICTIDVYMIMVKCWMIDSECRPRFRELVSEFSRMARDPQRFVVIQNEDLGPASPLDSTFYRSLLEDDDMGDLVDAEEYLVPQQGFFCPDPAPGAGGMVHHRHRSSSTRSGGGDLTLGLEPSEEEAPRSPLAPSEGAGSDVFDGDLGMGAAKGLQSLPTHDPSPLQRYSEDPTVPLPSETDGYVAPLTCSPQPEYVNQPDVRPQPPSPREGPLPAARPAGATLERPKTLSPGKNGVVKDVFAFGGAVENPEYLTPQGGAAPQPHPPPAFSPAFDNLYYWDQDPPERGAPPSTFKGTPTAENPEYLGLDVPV
A further assay has as its target Ba/F3 ERBB2-L869R (Homo sapiens, UniProt P04626, L869R, cells depend on it). Nature of the assay: Cell viability assay, Ba/F3 ERBB2-L869R. Type of assay: cell-based, mouse. The settings on record: 72 hours, CellTiter Glo, read-out: IC50, cell viability, Ba/F3 ERBB2-L869R. The protocol:
as §1, §2, §3, §4, §5

In the next assay the test system is A431. In words: Cell viability assay (CellTiter Glo), A431. Type of assay: cell-based. The settings on record: Homo sapiens, A-431, A431 cells, 72 hours.
In a further assay the target is Ba/F3 ERBB2-L755S (Homo sapiens, UniProt P04626, L755S, cells depend on it). In words: Cell viability assay, Ba/F3 ERBB2-L755S. The format is cell-based, mouse. Conditions: 72 hours, CellTiter Glo, read-out: IC50, cell viability, Ba/F3 ERBB2-L755S. The protocol: as §1, §2, §3, §4, §5
Assay [3] deals with T1, phosphorylated ERBB2 (pERBB2) (Homo sapiens, UniProt P04626).
T1 construct: endogenous in cells; host or cells: BT-474
In words: Detection of phosphorylated ERBB2 (pERBB2) by ELISA in BT-474 cells. The format is cell-based. The settings on record: four hours incubation. An outline of the steps:
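Phospho-ERBB2 in lysates was quantified by sandwich ELISA (A450, TMB) after 4 h compound exposure at 37 °C of BT-474 cells seeded at 2.0×10^4 per well. Compounds tested at 10 µM to 0.01 nM final in four-fold steps; activity normalized to DMSO (0.1%) high and cell-free low controls.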

Sequence of Ba/F3 ERBB2-P780_Y781insGSP (P04626 with tags, fused parts or gaps DUP778-780): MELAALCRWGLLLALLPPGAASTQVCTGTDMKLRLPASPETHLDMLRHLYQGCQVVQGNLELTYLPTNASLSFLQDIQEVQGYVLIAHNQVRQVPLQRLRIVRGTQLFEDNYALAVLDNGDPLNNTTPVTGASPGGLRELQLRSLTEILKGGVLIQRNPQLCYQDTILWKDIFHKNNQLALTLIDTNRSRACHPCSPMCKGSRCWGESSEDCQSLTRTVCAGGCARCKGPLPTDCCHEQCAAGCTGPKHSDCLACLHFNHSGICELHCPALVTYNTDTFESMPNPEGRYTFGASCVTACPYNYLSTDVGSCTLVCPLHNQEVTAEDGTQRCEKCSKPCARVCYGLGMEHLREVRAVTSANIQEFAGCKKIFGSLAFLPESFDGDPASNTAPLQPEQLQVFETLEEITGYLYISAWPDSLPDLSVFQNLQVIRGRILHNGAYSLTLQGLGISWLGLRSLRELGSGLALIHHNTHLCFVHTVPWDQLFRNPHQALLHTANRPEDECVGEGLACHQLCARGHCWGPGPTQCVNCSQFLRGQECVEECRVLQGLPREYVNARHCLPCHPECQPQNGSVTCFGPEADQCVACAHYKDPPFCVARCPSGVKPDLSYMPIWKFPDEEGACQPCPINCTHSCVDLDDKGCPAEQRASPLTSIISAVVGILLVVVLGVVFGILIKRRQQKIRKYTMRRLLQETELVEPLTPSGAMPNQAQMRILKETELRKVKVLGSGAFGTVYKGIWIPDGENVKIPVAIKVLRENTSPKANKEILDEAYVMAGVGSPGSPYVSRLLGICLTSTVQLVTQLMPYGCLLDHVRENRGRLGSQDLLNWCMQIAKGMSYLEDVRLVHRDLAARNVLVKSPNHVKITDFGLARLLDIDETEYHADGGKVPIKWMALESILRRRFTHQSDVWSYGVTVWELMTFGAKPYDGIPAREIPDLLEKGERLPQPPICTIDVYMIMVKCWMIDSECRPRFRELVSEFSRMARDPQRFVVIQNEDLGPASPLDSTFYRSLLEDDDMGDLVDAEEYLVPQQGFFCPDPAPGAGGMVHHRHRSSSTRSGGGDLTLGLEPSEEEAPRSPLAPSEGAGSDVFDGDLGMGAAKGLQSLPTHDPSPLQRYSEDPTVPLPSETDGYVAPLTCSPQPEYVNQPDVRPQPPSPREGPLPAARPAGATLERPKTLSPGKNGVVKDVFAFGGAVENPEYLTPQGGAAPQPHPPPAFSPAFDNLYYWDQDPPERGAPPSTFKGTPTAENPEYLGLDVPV
Sequence of Ba/F3 ERBB2-V777L (P04626 whole entry V777L): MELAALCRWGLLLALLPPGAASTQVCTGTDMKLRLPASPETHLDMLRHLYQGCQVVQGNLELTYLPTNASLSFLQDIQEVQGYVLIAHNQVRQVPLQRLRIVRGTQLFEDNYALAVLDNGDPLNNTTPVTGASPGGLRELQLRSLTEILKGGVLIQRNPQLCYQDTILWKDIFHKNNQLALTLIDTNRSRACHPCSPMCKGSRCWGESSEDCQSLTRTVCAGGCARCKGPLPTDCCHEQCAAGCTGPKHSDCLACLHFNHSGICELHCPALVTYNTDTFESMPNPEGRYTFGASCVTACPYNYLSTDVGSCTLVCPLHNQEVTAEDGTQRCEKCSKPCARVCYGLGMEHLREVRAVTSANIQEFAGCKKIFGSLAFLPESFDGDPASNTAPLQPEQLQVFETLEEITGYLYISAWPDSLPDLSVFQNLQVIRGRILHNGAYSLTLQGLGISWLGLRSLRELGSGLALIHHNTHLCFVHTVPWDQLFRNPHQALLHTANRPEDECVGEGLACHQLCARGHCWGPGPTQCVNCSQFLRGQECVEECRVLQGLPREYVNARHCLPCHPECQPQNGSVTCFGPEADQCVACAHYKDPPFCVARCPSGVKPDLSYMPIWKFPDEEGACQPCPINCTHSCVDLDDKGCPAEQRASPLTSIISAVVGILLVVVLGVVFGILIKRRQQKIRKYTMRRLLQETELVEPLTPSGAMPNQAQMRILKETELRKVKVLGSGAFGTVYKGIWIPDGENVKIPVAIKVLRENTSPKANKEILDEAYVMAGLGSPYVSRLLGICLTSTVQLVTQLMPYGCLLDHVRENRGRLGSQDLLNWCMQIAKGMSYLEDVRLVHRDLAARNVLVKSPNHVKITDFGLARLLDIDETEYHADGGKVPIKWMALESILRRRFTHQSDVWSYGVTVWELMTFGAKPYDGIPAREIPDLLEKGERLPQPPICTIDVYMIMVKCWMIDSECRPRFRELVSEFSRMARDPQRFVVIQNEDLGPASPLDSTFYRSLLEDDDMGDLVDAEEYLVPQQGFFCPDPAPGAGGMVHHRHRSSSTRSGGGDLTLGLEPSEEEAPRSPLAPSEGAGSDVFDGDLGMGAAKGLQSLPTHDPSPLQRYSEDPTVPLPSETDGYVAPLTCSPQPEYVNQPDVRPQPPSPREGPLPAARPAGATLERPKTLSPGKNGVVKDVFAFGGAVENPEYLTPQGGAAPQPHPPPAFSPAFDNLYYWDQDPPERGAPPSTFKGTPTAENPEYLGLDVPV

In the case of `C=C1CCN(c2ccc3ncnc(Nc4ccc(Oc5ccn6ncnc6c5)c(C)c4)c3c2)C1=O` [Compound 1, 1-[4-[(3-methyl-4-[[1,2,4]triazolo[1,5-a]pyridin-7-yloxy]phenyl)amino]quinazolin-6-yl]-3-methylidenepyrrolidin-2-one], the GI50 is 0.41 nM on Ba/F3 ERBB2-V777L; 2.3 nM on Ba/F3 ERBB2 wt; 3.4 nM in assay [1]; 28 nM in assay [2]; 151 nM on Ba/F3 ERBB2-T798M; 3.6 nM at Ba/F3 ERBB2-L869R. At Ba/F3 ERBB2-L755S, the GI50 came to 13 nM. Moreover, the IC50 in the assay with A431 was 5.8 µM; in [3], 7.94 nM.

Regarding `C=C1CCN(c2ccc3ncnc(Nc4ccc(Oc5ccn6ccnc6c5)c(C)c4)c3c2)C1=O` [Compound 4, 1-[4-[(4-[imidazo[1,2-a]pyridin-7-yloxy]-3-methylphenyl)amino]quinazolin-6-yl]-3-methylidenepyrrolidin-2-one], the GI50 was found to be 1.3 nM on Ba/F3 ERBB2-V777L; 3.9 nM on Ba/F3 ERBB2 wt; 2.6 nM in [1]; 16 nM in assay [2]; 154 nM on Ba/F3 ERBB2-T798M; 4.8 nM at Ba/F3 ERBB2-L869R. The GI50 on Ba/F3 ERBB2-L755S was 14 nM. The IC50 stood at 1.28 µM with A431 and 5.17 nM in assay [3].
